Measured values: patent US20060160869A1, “Ubiquitin ligase inhibitors” (Rigel Pharmaceuticals, Inc., priority 2005, published 2006)

Assays:
[1] = tested on: p53 reporter system in p53 wild-type A549 cell line; assay: p53-dependent transcription reporter assay, A549RE; format: cell-based; conditions: p53 +ve cell type; maximal fold induction over DMSO control
Description: (§1) Stable lines of U2OS (osteosarcoma; Wild-type p53 positive), HCT116 (colorectal carcinoma; Wild-type p53 positive) and H1299 (lung non-small cell carcinoma; p53 null) carrying p53-dependent transcriptional regulatory element linked to a Luciferase reporter gene and H1299 carrying a 5′-regulatory region of GADD45 linked to Luciferase were used.
(§2) Day 2: The compounds or control drugs were diluted in dimethyl sulfoxide (DMSO) and added to the wells to create 6-points/2-fold serial dilution (20, 10, 5, 2.5, 1.25, 0.625 and 0 μM) for each compound. The DMSO concentration was adjusted to 0.2% in all wells.
(§3) Day 3: Twenty to 24 hours after compound addition, cells were twice washed with PBS and lysed with Glo-lysis buffer (100 μl/well, Promega; Cat#E2661). Plates were subjected to gentle agitation on a table-top shaker for 5 minutes at room temperature. Fifty μl of lysate was transferred to an assay plate to test for luciferase activity and mixed with 2× assay buffer (Promega; Cat# E1483). The reaction mixture was left at room temperature for 2 minutes and then luminescence was measure by a luminometer (Victor™, 1420 Multilabel Counter, Wallac).
(§4) Data analysis was done on Excel software (Microsoft). Values in Table 4 represent maximal fold induction over negative control (DMSO only) and are the mean of at least duplicate experiments.
A549RE is a p53 wild-type A549 cell line containing p53 reporter system. If the compound acts against MDM2, p53 activity increases.

[2] = target: E3 (His-APC11/APC2, "APC") (Homo sapiens, UniProt Q9NYG5+Q9UJX6); assay: Plate-based E3 ligase assay (APC FLAG), auto-ubiquitination; format: biochemical; conditions: Table 2; read-out: APC IC50
E3 (His-APC11/APC2, "APC"), sequence (Q9NYG5 whole entry): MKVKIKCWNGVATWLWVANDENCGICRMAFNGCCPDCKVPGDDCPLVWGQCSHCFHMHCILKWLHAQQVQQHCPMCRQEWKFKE
E3 (His-APC11/APC2, "APC"), sequence (Q9UJX6 whole entry): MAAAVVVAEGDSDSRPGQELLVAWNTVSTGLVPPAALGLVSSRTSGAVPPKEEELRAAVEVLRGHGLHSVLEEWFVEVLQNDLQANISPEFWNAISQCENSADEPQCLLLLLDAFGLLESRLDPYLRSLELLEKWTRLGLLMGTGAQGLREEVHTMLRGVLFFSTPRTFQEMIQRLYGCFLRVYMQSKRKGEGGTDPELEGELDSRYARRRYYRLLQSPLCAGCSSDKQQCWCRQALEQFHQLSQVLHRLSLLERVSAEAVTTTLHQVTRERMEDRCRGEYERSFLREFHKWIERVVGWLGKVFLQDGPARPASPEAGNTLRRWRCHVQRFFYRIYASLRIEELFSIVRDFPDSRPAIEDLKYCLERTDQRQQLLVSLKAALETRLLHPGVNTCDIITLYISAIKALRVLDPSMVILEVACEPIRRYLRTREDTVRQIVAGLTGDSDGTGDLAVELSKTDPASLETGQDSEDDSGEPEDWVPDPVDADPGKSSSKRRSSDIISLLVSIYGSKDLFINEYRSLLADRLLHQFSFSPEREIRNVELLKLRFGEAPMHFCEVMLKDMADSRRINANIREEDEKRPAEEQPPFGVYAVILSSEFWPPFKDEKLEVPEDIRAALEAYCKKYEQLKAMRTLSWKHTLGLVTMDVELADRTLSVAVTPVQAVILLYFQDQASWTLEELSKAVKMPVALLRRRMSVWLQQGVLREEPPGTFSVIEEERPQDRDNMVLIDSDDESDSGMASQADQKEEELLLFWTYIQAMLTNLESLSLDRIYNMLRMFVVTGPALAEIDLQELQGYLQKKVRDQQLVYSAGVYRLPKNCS
Description: (§5) E3 (His-APC11/APC2—“APC”) auto-ubiquitination was measured as described in U.S. patent application Ser. No. 09/826,312 (Publication No. US-2002-0042083-A1), which is incorporated herein in its entirety. Details of the protocol are described below. Activity in the presence of the compound was determined relative to a parallel control in which only DMSO was added. Values of the IC50 were typically determined using 6 or 8 different concentrations of the compound, although as few as 2 concentrations may be used to approximate the IC50 value.
(§6) Nickel-coated 96-well plates (Pierce 15242) were blocked for 1 hour with 100 μl of blocking buffer at room temperature. The plates were washed 4 times with 225 μl of 1×PBS and 80 μl of the reaction buffer were added that contained 100 ng/well of Flag-ubiquitin. To this, 10 μl of the test compound diluted in DMSO were added. After the test compound was added, 10 μl of E1 (human), E2 (Ubch5c), and APC in Protein Buffer was added to obtain a final concentration of 5 ng/well of E1, 20 ng/well: of E2 and 100 ng/well of APC. The plate were shaken for 10 minutes and incubated at room temperature for 1 hour. After incubation, the plates were washed 4 times with 225 μl of 1×PBS and 100 μl/well of Antibody Mix were added to each well. The plates were incubate at room temperature for another hour after which they were washed 4 times with 225 μl of 1×PBS and 100 μl/well of Lumino substrate were added to each well. The luminescence was measured by using a BMG luminescence microplate reader.
APC Plate/gel is Anaphase Promoting Complex. This protein also belongs to E3 RING finger ligase group.

MDM2 = MDM2 (Homo sapiens, UniProt Q00987); assay: Plate-based E3 ligase assay, MDM2 autoubiquitination (MDM2-FLAG); format: biochemical; conditions: Table 2; read-out: MDM2 IC50
MDM2, sequence (Q00987 whole entry): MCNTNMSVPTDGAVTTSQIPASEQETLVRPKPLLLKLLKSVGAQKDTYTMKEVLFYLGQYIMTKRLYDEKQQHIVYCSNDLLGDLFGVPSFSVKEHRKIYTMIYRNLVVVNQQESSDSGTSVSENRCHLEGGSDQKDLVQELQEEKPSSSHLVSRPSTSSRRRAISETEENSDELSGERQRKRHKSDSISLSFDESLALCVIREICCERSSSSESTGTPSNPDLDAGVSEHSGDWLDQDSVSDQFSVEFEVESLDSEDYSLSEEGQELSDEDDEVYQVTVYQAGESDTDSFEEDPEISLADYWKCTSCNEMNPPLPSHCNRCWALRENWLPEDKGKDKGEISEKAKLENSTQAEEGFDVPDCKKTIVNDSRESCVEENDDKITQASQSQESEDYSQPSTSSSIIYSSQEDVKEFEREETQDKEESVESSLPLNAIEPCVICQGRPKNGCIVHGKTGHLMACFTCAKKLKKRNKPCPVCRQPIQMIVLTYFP
Description: as §5, §6
In similar manner, autoubiquitination of the E3 MDM2 was determined (MDM2-FLAG). Further instruction in such assays can be found in U.S. patent application Ser. No. 10/108,767 (Publication No. US-2003-0104474 A1), which is incorporated herein in its entirety.
hMDM2 Plate/Gel is Mouse double minute 2, human homolog. This protein belongs to the E3 RING finger ligase group.

[3] = tested on: p53 reporter system in p53 wild-type U2OS cell line; assay: p53-dependent transcription reporter assay, U20SRE; format: cell-based; conditions: p53 +ve cell type; maximal fold induction over DMSO control
From the text: as §1
Day 1: Cells were re-plated into 96-well plates at suitable densities to make 50-60% confluence on Day 2. The plating densities are as follows: 7.5×10^3 cells/well (or 2.5×10^4 cells/cm^2) for U2OS; 1.5×10^4 cells/well (or 5.0×10^4 cells/cm^2) for HCT116; and 1.0×10^4 cells/well (or 3.3×10^4 cells/cm^2) for H1299.
as §2, §3, §4
U20SRE is a p53 wild-type U2OS cell line containing p53 reporter system. If the compound acts against MDM2, p53 activity increases.

## CC(C)N(CCN(Cc1ccc(C(=O)N2CCNCC2)cc1)c1nc(-c2cccc([N+](=O)[O-])c2)cs1)C(C)C [compound 233]
[1]
  Fold Induction of p53 activity, A549RE: a (a means 2 or less)
[2]
  IC50: ≥ 20 µM
MDM2
  IC50: ≥ 20 µM
[3]
  Fold Induction of p53 activity, U20SRE: a (a means 2 or less)
